Key:
[1] = Oxidation of cumene to cumene hydroperoxide by oxygen with AIBN, assayed by HPLC-UV; settings: for % of reduction of the oxidation of the cumene / Area of the signal, in relative units, of the cumene hydroperoxide: 2 equivalents of AIBN, 2 hours 45° C.
Description: The oxidation of cumene at atmospheric pressure and at 37° C. by oxygen is known and described in the presence of a radical initiator such as AIBN (azobisisobutyronitrile) (Blanchard H. S., J. Am. Chem. Soc. 1959, 81, 4548). A recent publication used this reaction to classify the antioxidant potential of known products such as vitamin E (which is the universal reference), BHT (butylated hydroxytoluene) and other products.
In the following experiment we reproduced the same experimental conditions as those described in the publication of Becker D. A. et al. (J. Am. Chem. Soc. 2002, 124, 4678-4684). A high pressure liquid chromatography method coupled with a UV detector was used to detect cumene hydroperoxide. The column used is an Agilent Zorbax Eclipse XDB RPC8 column (150×4.6 mm) coupled with a UV detector fixed at 254 nm. The gradient used is detailed in the following table: […]
2 ml of cumene (AcrosOrganic) and 0.5 ml of methanol are mixed, azobisisobutyronitrile (AcrosOrganic) is added (2 equivalents) and the solution taken to 45° C. in order to accelerate the chemical reaction. The cumene hydroperoxide appears over time and is assayed by the HPLC method.
The technique used made it possible to compare the appearance of the cumene hydroperoxide in the presence of an antioxidant agent such as the claimed products and vitamin E used as reference product.

[2] = Chemical stability of the powder under ICH storage conditions, total impurities by GC-FID; type: physicochemical; settings: for total impurities: powder
Description: These analyses were carried out using a gas chromatography method coupled with an FID detector. This method makes it possible to quantify the impurities at a level of 0.2%.

[3] = system: perfused isolated rat heart; experiment: Perfused isolated rat heart, ischaemia/reperfusion, DMPO spin trapping in the coronary effluents (EPR)
Description: The animals used are male rats of the Sprague Dawley strain (Harlan et CERJ, France) of 250-300 g) fed ad libitum. The rats are anaesthetized by an intraperitoneal injection of sodium pentobarbital (50 mg/kg of body weight). The thoracic cavity is then opened and the heart rapidly removed and immersed in perfusion liquid (Krebs-Henseleit) at 4° C. in order to stop any contraction.
The heart with fatty tissues removed is then perfused according to Langendorff's technique by aortic retrograde route at a constant pressure of 90 cm H2O. A small incision in the pulmonary artery allows the flow and measurement of the coronary effluent over time (coronary flow rate). The time required for completion of the entire operation is two to three minutes. After ablation of the left auricle, a latex cuff is inserted into the left ventricle and filled with a volume of distilled water (50-60 μl) which remains constant during the experimental protocol, connected to a pressure sensor (GOULD) and to a differentiating recorder allowing the measurement of the following haemodynamic parameters: • intraventricular diastolic pressure (Pdia) • developed pressure of left ventricle Pdev=Psystolic−Pdia • dP/dt (first derivative of the developed pressure, cardiac contractility index in this model) • cardiac frequency (F) • cardiac work calculated according to the relationship W=Pdev×F […]

[4] = Competition with DMPO for the tBuO radical, DMPO-tBuO adduct signal measured by EPR
Description: The nitrones trap the radical species (R.; RO.) and allow their observation by electron paramagnetic resonance (EPR) (Degray J. et al. Electron Spin Resonance, Ed N. M. Atherton, Atheaeum Press Ltd; Cambridge, 1994, 14, 246).
The incubation of the DMPO (Interchim-U2469) (20 mM) in deoxygenated toluene (Sigma-Aldrich) in the presence of the tBuO (tert-butoxyl) radical, generated by photolysis, makes it possible to identify and quantify by EPR the signal of the DMPO-tBuO radical. This signal is inhibited in the presence of an equimolar quantity of 3,5-seco-4-nor-cholestane oxime.
The EPR signal allows integration in the form of an area of the signal of the DMPO-tBuO adduct and therefore a relative quantification of this radical entity.
All the experiments were carried out on an X-band Bruker ESP300 device (9.5 GHz) at ambient temperature. The solutions were studied in a quartz EPR tube.

[5] = Pharmacokinetics in the rat, oral and intravenous routes; type: in vivo; settings: 500 mg/kg by oral route, suspension in corn oil, i.v. reference in cremophor/ethanol/water
Description: A study of pharmacokinetics with administration by oral route in suspension in corn oil and by intra-venous route in solution in cremophor/ethanol/water (5%, 10%, 85%) made it possible to calculate the bioavailability of the product. The assay of the product in the plasma is carried out by a high pressure liquid chromatography method coupled with mass spectrometry.

vitamin E [reference compound]
% of reduction of the oxidation of the cumene ([1]; 100 μM): 39%
Area of the signal, in relative units, of the cumene hydroperoxide ([1]; 100 μM): 245 relative units

CC(C)CCC[C@@H](C)[C@H]1CC[C@H]2[C@@H]3CC/C(=N\O)[C@](C)(CCCO)[C@H]3CC[C@]12C [3,5-seco-4-nor-cholestan-5-one oxime-3-ol]
reduction of the oxidation of the cumene by oxygen (conclusion) [1]: approximately 40%
% of reduction of the oxidation of the cumene ([1]; 50 μM): 25%
Area of the signal, in relative units, of the cumene hydroperoxide ([1]; 50 μM): 300 relative units
% of reduction of the oxidation of the cumene ([1]; 200 μM): 50%
Area of the signal, in relative units, of the cumene hydroperoxide ([1]; 200 μM): 200 relative units
activity compared with vitamin E ([1]; same concentrations): same order of magnitude
change in the quality of the product ([2]; after 1 year's storage at 25° C.): No change in the quality
change in the quality of the product ([2]; after 6 months of storage at 40° C.): No change in the quality
total impurities ([2]; 25° C. under 60% relative humidity, T0): 0.2%
total impurities ([2]; 25° C. under 60% relative humidity, T12 months): 0.2%
total impurities ([2]; 40° C. under 75% relative humidity, T0): 0.2%
total impurities ([2]; 40° C. under 75% relative humidity, T6 months): 0.2%
extracellular production of free radical scavenging adducts (DMPO-OH) in the coronary effluents ([3]; 1 μM in Krebs buffer, DMPO 50 mM, reperfusion after ischaemia, p<0.05): large and significant reduction
protection with respect to the vehicle (DMPO-OH adducts, FIG. 1) ([3]; 1 μM, two groups of 6 hearts): significant protection
% inhibition of the DMPO-tBuO radical ([4]; compound 20 mM + DMPO 20 mM, 200 s): 50%
% inhibition of the DMPO-tBuO radical ([4]; compound 20 mM + DMPO 20 mM, 400 s): 66%
Area of the DMPO-tBuO signal at 200 s in relative units ([4]; compound 20 mM + DMPO 20 mM, (t-BuO)2 20 mM, photolysis at 350 nm, 200 s): 3 relative units
Area of the DMPO-tBuO signal at 400 s in relative units ([4]; compound 20 mM + DMPO 20 mM, (t-BuO)2 20 mM, photolysis at 350 nm, 400 s): 4 relative units
effect on the DMPO-tBuO EPR signal ([4]; equimolar quantity to DMPO (20 mM), deoxygenated toluene): inhibited
inhibition of the level of the DMPO-tBuO signal radical (conclusion) ([4]; equimolar with DMPO): ~60%
kinetics of inhibition of the DMPO-tBuO signal (time) ([4]; rapid kinetics): less than 10 minutes
bioavailability [5]: 6%
